Experimental data taken from patent US6764768B2, “Controlled release composition” (Arch Development Corporation, priority 2001, dated 2004).

Legend:
streptavidin = experiment: SPR measurement of streptavidin association with the biotin-presenting monolayer; assay type: binding; conditions: biotin 140 μM mixed with streptavidin before introduction to the SAM
Source text: The following sequence was used to measure the association of proteins to the monolayers: buffer (phosphate buffered saline, pH 7.4) was flowed over the monolayer for three minutes to establish a baseline; a solution of protein in the same buffer was flowed over the surface for eight minutes to observe binding; buffer was again flowed for four minutes to quantitate the amount of protein that remained bound. […] (SPR measures the angle of light (θ) reflected from the backside of the gold substrate that is a minimum in intensity. Changes in this angle (Δθ) are linearly related to the index of refraction of the solution above the surface and therefore to the density of adsorbed protein (Δθof 0.10°=1 ng/mm^2). Experiments show a change in θ immediately following protein injection due to differences in refractive index between the two solutions.) The change in resonance angle (Δθ) after streptavidin was flowed over the substrate corresponds to a final protein density of 1.1 ng/mm^2. The protein remained irreversibly bound because of the high affinity of the streptavidin-biotin complex.
Electrochemistry was performed in buffered water (PBS, pH 7.4) using the gold substrate as the working electrode, a platinum wire as the counter electrode, and a Ag/AgCl/KCl reference electrode—prior to mounting the substrate in a cartridge for analysis by SPR. […]

[1] = test system: Swiss 3T3 fibroblast cells; experiment: Adhesion and electrically or peptide-triggered release of cells on patterned RGD monolayer; assay type: cell-based
Protocol: The substrate was patterned into two regions that each presented the RGD peptide at a density of less than 0.1% mixed with tri(ethylene glycol) groups. The pattern was formed by applying an alkanethiol solution (corresponding to FIG. 5A) for 5 min to a gold-coated glass substrate, half of which was blocked with a polydimethylsiloxane mask. Following rinsing, the mask was removed, and the substrate was incubated in a solution of a second alkanethiol (corresponding to FIG. 5B) for 6 h. In all cases, the monolayers were formed from ethanolic solutions containing a mixture of an alkanethiol substituted with tri(ethylene glycol) and an alkanethiol substituted with either RGD or the RGD containing alkanethiol of the present invention, in a ratio of 999: 1. The two regions differed only in the linkage used to tether the peptides to the monolayer (C. Roberts, C. S. Chen, M. Mrksich, V. Martichonok, D. E. Ingber, G. M. Whitesides, J. Am. Chem. Soc. 1998, 120, 6548-6555; and B. T. Houseman, M. Mrksich, J. Org. Chem. 1998, 63, 7552-7555).
This substrate was placed into cell culture media and a suspension of Swiss 3T3 fibroblast cells was added. The Swiss Albino 3T3 cells (ATCC, Rockville, Md.) were grown in Dulbecco's Modified Eagle Medium (DMEM) containing 10% fetal bovine serum and penicillin/streptomycin. All cultures were maintained at 37° C. in a humidified 10% CO2 atmosphere. […]

| Molecule | binding of streptavidin to the SAM when streptavidin was mixed with biotin (streptavidin) | cells released from the surface by soluble peptide ([1]; 2 mM in fresh media, 37° C. for 20 minutes, after electrical treatment) | detachment of cells by soluble peptide prior to electrical treatment ([1]; patterned substrate, both regions, prior to electrical treatment) |
| --- | --- | --- | --- |
| O=C(O)CCCC[C@@H]1SC[C@@H]2NC(=O)N[C@@H]21 [biotin] | no binding of the protein to the surface |  |  |
| Gly-Arg-Gly-Asp-Ser (GRGDS; printed: Gly-Arg-Gly-Asp-Ser) |  | greater than 95% | near complete detachment of cells from both regions |
